Data reported in patent US8017600B2, “Imidazole compounds” (Janssen Pharmaceutica NV, priority 2004, dated 2011).

Biological target: T1, human histamine H4 receptor (Homo sapiens, UniProt Q9H3N8)
T1 construct: expressed in transfected cells; host or cells: SK-N-MC cells or COS7 cells, transient transfection; cell membranes
Assay: Binding assay on recombinant human histamine H4 receptor (3H-histamine displacement)
Details: membranes of SK-N-MC or COS7 cells expressing human H4 receptor, Cheng-Prusoff
Procedure: SK-N-MC cells or COS7 cells were transiently transfected with pH4R and grown in 150 cm^2 tissue culture dishes. Cells were washed with saline solution, scraped with a cell scraper and collected by centrifugation (1000 rpm, 5 min). Cell membranes were prepared by homogenization of the cell pellet in 20 mM Tris-HCl with a polytron tissue homogenizer for 10 sec at high speed. Homogenate was centrifuged at 1000 rpm for 5 min at 4° C. The supernatant was then collected and centrifuged at 20,000×g for 25 min at 4° C. The final pellet was resuspended in 50 mM Tris-HCl. Cell membranes were incubated with ^3H-histamine (5-70 nM) in the presence or absence of excess histamine (10,000 nM). Incubation occurred at room temperature for 45 min. Membranes were harvested by rapid filtration over Whatman GF/C filters and washed 4 times with ice-cold 50 mM Tris HCl. Filters were then dried, mixed with scintillant and counted for radioactivity. SK-N-MC or COS7 cells expressing human histamine H4 receptor were used to measure the affinity of binding of other compounds and their ability to displace ^3H-ligand binding by incubating the above-described reaction in the presence of various concentrations of inhibitor or compound to be tested.

T1 sequence (Q9H3N8 whole entry): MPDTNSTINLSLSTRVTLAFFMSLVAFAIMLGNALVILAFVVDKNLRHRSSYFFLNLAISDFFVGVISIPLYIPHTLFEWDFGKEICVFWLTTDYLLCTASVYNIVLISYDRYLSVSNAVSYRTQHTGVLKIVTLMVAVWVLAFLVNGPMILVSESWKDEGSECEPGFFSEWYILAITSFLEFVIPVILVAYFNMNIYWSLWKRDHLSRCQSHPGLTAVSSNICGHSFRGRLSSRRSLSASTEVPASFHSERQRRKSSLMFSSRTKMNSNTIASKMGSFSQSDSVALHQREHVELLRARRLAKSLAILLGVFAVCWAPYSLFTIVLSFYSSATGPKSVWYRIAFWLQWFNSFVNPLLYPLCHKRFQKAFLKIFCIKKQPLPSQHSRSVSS

| Structure (SMILES) | Ki [nM] |
| --- | --- |
| CN1CCN(CCCOc2ccc(-c3nc(-c4ccc(Br)cc4)c(-c4ccc(Br)cc4)[nH]3)c(Cl)c2)CC1 [Example 1, 1-(3-{4-[4,5-Bis-(4-bromo-phenyl)-1H-imidazol-2-yl]-3-chloro-phenoxy}-propyl)-4-methyl-piperazine] | 14 |
| CN1CCN(CCCOc2ccc(-c3nc(-c4ccccc4)c(-c4ccccc4)[nH]3)c(Cl)c2)CC1 [Example 2, 1-{3-[3-Chloro-4-(4,5-diphenyl-1H-imidazol-2-yl)-phenoxy]-propyl}-4-methyl-piperazine] | 39 |
| CN1CCN(CCCOc2ccc(-c3nc(-c4ccccc4Cl)c(-c4ccccc4Cl)[nH]3)c(Cl)c2)CC1 [Example 3, 1-(3-{4-[4,5-Bis-(2-chloro-phenyl)-1H-imidazol-2-yl]-3-chloro-phenoxy}-propyl)-4-methyl-piperazine] | 244 |
| COc1ccc(-c2nc(-c3ccc(OCCCN4CCN(C)CC4)cc3Cl)[nH]c2-c2ccc(OC)cc2)cc1 [Example 4, 1-(3-{4-[4,5-Bis-(4-methoxy-phenyl)-1H-imidazol-2-yl]-3-chloro-phenoxy}-propyl)-4-methyl-piperazine] | 44 |
| Cc1ccc(-c2nc(-c3ccc(OCCCN4CCN(C)CC4)cc3Cl)[nH]c2-c2ccc(C)cc2)cc1 [Example 5, 1-{3-[3-Chloro-4-(4,5-di-p-tolyl-1H-imidazol-2-yl)-phenoxy]-propyl}-4-methyl-piperazine] | 24 |
| CN1CCN(CCCOc2ccc(-c3nc(-c4ccc(F)cc4)c(-c4ccc(F)cc4)[nH]3)c(Cl)c2)CC1 [Example 6, 1-(3-{4-[4,5-Bis-(4-fluoro-phenyl)-1H-imidazol-2-yl]-3-chloro-phenoxy}-propyl)-4-methyl-piperazine] | 29 |
| COc1cccc(-c2nc(-c3ccc(OCCCN4CCN(C)CC4)cc3Cl)[nH]c2-c2cccc(OC)c2)c1 [Example 7, 1-(3-{4-[4,5-Bis-(3-methoxy-phenyl)-1H-imidazol-2-yl]-3-chloro-phenoxy}-propyl)-4-methyl-piperazine] | 21 |
| COc1cccc(-c2nc(-c3ccc(OCCCN4CCN(C)CC4)c(F)c3)[nH]c2-c2cccc(OC)c2)c1 [Example 8, 1-(3-{4-[4,5-Bis-(3-methoxy-phenyl)-1H-imidazol-2-yl]-2-fluoro-phenoxy}-propyl)-4-methyl-piperazine] | 60 |
| CN1CCCN(CCCOc2ccc(-c3nc(-c4ccc(Br)cc4)c(-c4ccc(Br)cc4)[nH]3)c(Cl)c2)CC1 [Example 9, 1-(3-{4-[4,5-Bis-(4-bromo-phenyl)-1H-imidazol-2-yl]-3-chloro-phenoxy}-propyl)-4-methyl-[1,4]diazepane] | 11 |
| COc1cccc(-c2nc(-c3ccc(OCCCN4CCCN(C)CC4)cc3Cl)[nH]c2-c2cccc(OC)c2)c1 [Example 10, 1-(3-{4-[4,5-Bis-(3-methoxy-phenyl)-1H-imidazol-2-yl]-3-chloro-phenoxy}-propyl)-4-methyl-[1,4]diazepane] | 6 |
| Cc1[nH]c(-c2ccc(OCCCN3CCCN(C)CC3)c(Cl)c2)nc1-c1ccccc1 [Example 11, 1-{3-[2-Chloro-4-(5-methyl-4-phenyl-1H-imidazol-2-yl)-phenoxy]-propyl}-4-methyl-[1,4]diazepane] | 70 |
| CN1CCCN(CCCOc2ccc(-c3nc4c([nH]3)CCCC4)cc2Cl)CC1 [Example 12, 2-{3-Chloro-4-[3-(4-methyl-[1,4]diazepan-1-yl)-propoxy]-phenyl}-4,5,6,7-tetrahydro-1H-benzoimidazole] | 65 |
| CN1CCCN(CCCOc2ccc(-c3nc4c([nH]3)CCCC4)c(Cl)c2)CC1 [Example 13, 2-{2-Chloro-4-[3-(4-methyl-[1,4]diazepan-1-yl)-propoxy]-phenyl}-4,5,6,7-tetrahydro-1H-benzoimidazole] | 32 |
| Cc1cc(OCCCC2CCN(C)CC2)ccc1-c1nc(-c2ccccc2)c(C(F)(F)F)[nH]1 [Example 14, 1-Methyl-4-{3-[3-methyl-4-(4-phenyl-5-trifluoromethyl-1H-imidazol-2-yl)-phenoxy]-propyl}-piperidine] | 32 |
| CN1CCC(CCCOc2ccc(-c3nc(-c4ccccc4)c(C(F)(F)F)[nH]3)c(Cl)c2)CC1 [Example 15, 4-{3-[3-Chloro-4-(4-phenyl-5-trifluoromethyl-1H-imidazol-2-yl)-phenoxy]-propyl}-1-methyl-piperidine] | 38 |
| Cc1[nH]c(-c2ccc(OCCCC3CCN(C)CC3)cc2Cl)nc1-c1cccc(C(F)(F)F)c1 [Example 16, 4-(3-{3-Chloro-4-[5-methyl-4-(3-trifluoromethyl-phenyl)-1H-imidazol-2-yl]-phenoxy}-propyl)-1-methyl-piperidine] | 165 |
| Cc1[nH]c(-c2ccc(OCCCC3CCN(C)CC3)cc2Cl)nc1-c1cc(Cl)cc(Cl)c1 [Example 17, 4-(3-{3-Chloro-4-[4-(3,5-dichloro-phenyl)-5-methyl-1H-imidazol-2-yl]-phenoxy}-propyl)-1-methyl-piperidine] | 52 |

| Structure (SMILES) | Ki [nM] |
| --- | --- |
| Cc1cc(OCCCC2CCN(C)CC2)ccc1-c1nc(-c2cc(Cl)cc(Cl)c2)c(C)[nH]1 [Example 18, 4-(3-{4-[4-(3,5-Dichloro-phenyl)-5-methyl-1H-imidazol-2-yl]-3-methyl-phenoxy}-propyl)-1-methyl-piperidine] | 45 |
| Cc1[nH]c(-c2ccc(OCCCC3CCN(C)CC3)cc2Cl)nc1-c1ccc(Cl)cc1 [Example 19, 4-(3-{3-Chloro-4-[4-(4-chloro-phenyl)-5-methyl-1H-imidazol-2-yl]-phenoxy}-propyl)-1-methyl-piperidine] | 22 |
| CN1CCC(CCCOc2ccc(-c3nc(-c4ccc(F)cc4)c(-c4ccc(F)cc4)[nH]3)c(Cl)c2)CC1 [Example 20, 4-(3-{4-[4,5-Bis-(4-fluoro-phenyl)-1H-imidazol-2-yl]-3-chloro-phenoxy}-propyl)-1-methyl-piperidine] | 39 |
| COc1cccc(-c2nc(-c3ccc(OCCCC4CCN(C)CC4)cc3Cl)[nH]c2-c2cccc(OC)c2)c1 [Example 21, 4-(3-{4-[4,5-Bis-(3-methoxy-phenyl)-1H-imidazol-2-yl]-3-chloro-phenoxy}-propyl)-1-methyl-piperidine] | 37 |
| Cc1ccc(-c2[nH]c(-c3ccc(OCCCC4CCN(C)CC4)cc3Cl)nc2-c2ccc(Cl)cc2)cc1 [Example 22, 4-(3-{3-Chloro-4-[4-(4-chloro-phenyl)-5-p-tolyl-1H-imidazol-2-yl]-phenoxy}-propyl)-1-methyl-piperidine] | 29 |
| CN1CCC(CCCOc2ccc(-c3nc4c([nH]3)CCCC4)c(Cl)c2)CC1 [Example 23, 2-{2-Chloro-4-[3-(1-methyl-piperidin-4-yl)-propoxy]-phenyl}-4,5,6,7-tetrahydro-1H-benzoimidazole] | 155 |
| CCCc1[nH]c(-c2ccc(OCCCC3CCN(C)CC3)cc2Cl)nc1C [Example 24, 4-{3-[3-Chloro-4-(4-methyl-5-propyl-1H-imidazol-2-yl)-phenoxy]-propyl}-1-methyl-piperidine] | 69 |
| CCc1[nH]c(-c2ccc(OCCCC3CCN(C)CC3)cc2Cl)nc1C [Example 25, 4-{3-[3-Chloro-4-(5-ethyl-4-methyl-1H-imidazol-2-yl)-phenoxy]-propyl}-1-methylpiperidine] | 100 |
| Cc1cc(OCCOC2CCN(C)CC2)ccc1-c1nc(-c2cccc(C(F)(F)F)c2)c(C)[nH]1 [Example 26, 1-Methyl-4-(2-{3-methyl-4-[5-methyl-4-(3-trifluoromethyl-phenyl)-1H-imidazol-2-yl]-phenoxy}-ethoxy)-piperidine] | 300 |
| Cc1[nH]c(-c2ccc(OCCCC3CCN(C)CC3)nc2)nc1-c1cc(Cl)cc(Cl)c1 [Example 27, 5-[4-(3,5-Dichloro-phenyl)-5-methyl-1H-imidazol-2-yl]-2-[3-(1-methyl-piperidin-4-yl)-propoxy]-pyridine] | 290 |
| Cc1[nH]c(-c2ccc(OCCCC3CCN(C)CC3)nc2)nc1-c1ccc(Cl)cc1 [Example 28, 5-[4-(4-Chloro-phenyl)-5-methyl-1H-imidazol-2-yl]-2-[3-(1-methyl-piperidin-4-yl)-propoxy]-pyridine] | 72 |
| Cc1[nH]c(-c2ccc(OCCCC3CCN(C)CC3)nc2)nc1-c1cccc(C(F)(F)F)c1 [Example 29, 2-[3-(1-Methyl-piperidin-4-yl)-propoxy]-5-[5-methyl-4-(3-trifluoromethyl-phenyl)-1H-imidazol-2-yl]-pyridine] | 42 |
| Cc1[nH]c(-c2ccc(OCCCC3CCN(C)CC3)nc2)nc1-c1ccc(C(F)(F)F)cc1 [Example 30, 2-[3-(1-Methyl-piperidin-4-yl)-propoxy]-5-[5-methyl-4-(4-trifluoromethyl-phenyl)-1H-imidazol-2-yl]-pyridine] | 64 |
| CN1CCC(CCCOc2ccc(-c3nc(-c4ccccc4)c(C(F)(F)F)[nH]3)cn2)CC1 [Example 31, 2-[3-(1-Methyl-piperidin-4-yl)-propoxy]-5-(4-phenyl-5-trifluoromethyl-1H-imidazol-2-yl)-pyridine] | 186 |
| Cc1[nH]c(-c2ccc(OCCCN3CCN(C)CC3)nc2)nc1-c1ccc(C(F)(F)F)cc1 [Example 32, 1-Methyl-4-(3-{5-[5-methyl-4-(4-trifluoromethyl-phenyl)-1H-imidazol-2-yl]-pyridin-2-yloxy}-propyl)-piperazine] | 230 |
| Cc1[nH]c(-c2ccc(OCCCN3CCN(C)CC3)nc2)nc1-c1cccc(C(F)(F)F)c1 [Example 33, 1-Methyl-4-(3-{5-[5-methyl-4-(3-trifluoromethyl-phenyl)-1H-imidazol-2-yl]-pyridin-2-yloxy}-propyl)-piperazine] | 63 |
